From patent publication US11680056B2, “MK2 inhibitors and uses thereof” (Xinthera, Inc., priority 2021, dated 2023) come the findings set out here.

In one assay the target is p38a/PRAK (Homo sapiens (Human), UniProt Q16539). Briefly: p38a/PRAK biochemical assay: activation of PRAK by p38, FITC-HSP27 peptide phosphorylation (IMAP FP). To be noted: 10-point 1:3 dilution, top dose 300 μM; 60 pM active p38a, 1 nM inactive PRAK, 10 μM ATP, 2 h incubation; read-out: p38a/PRAK Enzyme pIC50 (converted). Summed up: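 GST-tagged MK2 (F46–H400) and PRAK (M1–Q471), expressed in E. coli, activated by p38 and phosphorylate FITC-HSP27 peptide over 2 h with compound; readout by IMAP fluorescence polarisation (ex 485/em 528 nm). Ten-point 1:3 dilutions, top dose 1 μM for MK2 and 300 μM for PRAK. IC50 after vehicle normalisation; selectivity = IC50(PRAK)/IC50(MK2).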

For the next assay, the target named is p38a/MK2 (Homo sapiens (Human), UniProt P49137+Q16539). Description: p38a/MK2 biochemical assay: activation of MK2 by p38, FITC-HSP27 peptide phosphorylation (IMAP FP). To be noted: 10-point 1:3 dilution, 60 pM active p38a, 1 nM inactive MK2, 10 μM ATP, 2 h incubation.
[1] abbreviates: top dose 1 μM, read-out: p38a/MK2 (1 μM) Enzyme pIC50 (converted).
[2] abbreviates: top dose 10 μM, read-out: p38a/MK2 (10 μM) Enzyme pIC50 (converted).

Like-named read-outs stand apart in the source and are kept apart here.

p38a/PRAK, sequence (Q16539 whole entry): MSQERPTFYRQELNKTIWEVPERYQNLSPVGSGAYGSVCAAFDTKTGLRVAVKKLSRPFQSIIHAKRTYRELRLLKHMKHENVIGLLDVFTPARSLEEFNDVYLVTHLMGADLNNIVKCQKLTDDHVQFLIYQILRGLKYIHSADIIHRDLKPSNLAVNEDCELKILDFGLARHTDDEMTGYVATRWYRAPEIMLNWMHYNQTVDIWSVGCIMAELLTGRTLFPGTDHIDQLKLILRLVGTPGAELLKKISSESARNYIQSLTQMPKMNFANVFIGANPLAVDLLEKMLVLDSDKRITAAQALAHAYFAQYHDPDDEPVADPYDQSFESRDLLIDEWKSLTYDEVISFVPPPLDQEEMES
p38a/MK2, sequence (P49137 46-400): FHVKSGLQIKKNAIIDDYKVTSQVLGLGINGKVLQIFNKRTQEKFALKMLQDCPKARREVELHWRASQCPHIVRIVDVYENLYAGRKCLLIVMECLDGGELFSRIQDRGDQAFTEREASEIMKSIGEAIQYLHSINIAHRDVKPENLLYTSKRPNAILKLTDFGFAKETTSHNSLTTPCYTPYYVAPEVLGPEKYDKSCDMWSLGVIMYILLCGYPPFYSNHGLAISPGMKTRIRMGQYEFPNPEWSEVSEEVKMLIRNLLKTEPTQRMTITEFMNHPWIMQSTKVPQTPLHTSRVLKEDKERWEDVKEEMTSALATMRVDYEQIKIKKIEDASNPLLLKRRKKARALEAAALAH
p38a/MK2, sequence (Q16539 whole entry): as the sequence (Q16539 whole entry) above

Consider `Cc1cnc(-n2ccc(C(C)(C)O)n2)cc1-n1c(C)cc(OCc2ncc(F)cc2Cl)c(Cl)c1=O` (single isomer, unassigned) [Example 47A, rel-3-chloro-4-[(3-chloro-5-fluoropyridin-2-yl)methoxy]-2′-[3-(2-hydroxypropan-2-yl)pyrazol-1-yl]-5′,6-dimethyl-[1,4′-bipyridin]-2-one], for which the figures for the IC50 on p38a/PRAK and on p38a/MK2 (setting [1]) were 5010 nM and 2 nM, respectively.
In the same order, the values of `[2H]C([2H])(Oc1cc(C)n(-c2c(C)cnc(-c3ccnc(CC4(O)CC4)n3)c2F)c(=O)c1Cl)c1ncc(F)cc1F` (single isomer, unassigned) [Example 61B, rel-3-chloro-4-((3,5-difluoropyridin-2-yl)methoxy-d2)-3′-fluoro-2′-(2-((1-hydroxycyclopropyl)methyl)pyrimidin-4-yl)-5′,6-dimethyl-2H-[1,4′-bipyridin]-2-one] are 631 nM and 3.16 nM.
Consider `Cc1cnc(-c2cccc(C(C)(O)CO)n2)cc1-n1c(C)cc(OCc2ncc(F)cc2F)c(Cl)c1=O` (single isomer, unassigned) [Example 36C, rel-3-chloro-4-[(3,5-difluoropyridin-2-yl)methoxy]-2′-[6-(1,2-dihydroxypropan-2-yl)pyridin-2-yl]-5′,6-dimethyl-[1,4′-bipyridin]-2-one], for which the IC50 is over 316000 nM at p38a/PRAK and over 1000 nM on p38a/MK2 (setting [1]).
In the case of `Cc1cnc(-c2ccnc(C(O)C3CC3)n2)cc1-n1c(C)cc(OCc2ncc(F)cc2F)c(Cl)c1=O` (single isomer, unassigned) [Example 35C, rel-3-chloro-2′-{2-[cyclopropyl(hydroxy)methyl]pyrimidin-4-yl}-4-[(3,5-difluoropyridin-2-yl)methoxy]-5′,6-dimethyl-[1,4′-bipyridin]-2-one], the IC50 on p38a/PRAK is over 316000 nM; at p38a/MK2 (setting [1]), over 1000 nM.
For `[2H]C([2H])(Oc1cc(C)n(-c2cc(-c3ccnc(C(C)(C)O)c3F)ncc2C)c(=O)c1Cl)c1ncc(F)cc1F` (single isomer, unassigned) [Example 64B, rel-3-chloro-4-[(3,5-difluoropyridin-2-yl)(2H2)methoxy]-1-[3′-fluoro-2′-(2-hydroxypropan-2-yl)-5-methyl-[2,4′-bipyridin]-4-yl]-6-methylpyridin-2-one], the IC50 was over 316000 nM on p38a/PRAK and over 100 nM at p38a/MK2 (setting [1]).
On to `Cc1cnc(-c2nc(C(C)(C)O)ncc2C2CC2)cc1-n1c(C)cc(OCc2ncc(F)cc2F)c(Cl)c1=O` (single isomer, unassigned) [Example 31A, rel-3-chloro-2′-(5-cyclopropyl-2-(2-hydroxypropan-2-yl)pyrimidin-4-yl)-4-((3,5-difluoropyridin-2-yl)methoxy)-5′,6-dimethyl-2H-[1,4′-bipyridin]-2-one], for which the IC50 was 3160 nM at p38a/PRAK and 2000 nM on p38a/MK2 (setting [2]).
With `Cc1cnc(-c2ccnc(C(C)(C)O)n2)cc1-n1c(C)cc(OCc2cc(C(F)F)ccn2)c(Cl)c1=O` (single isomer, unassigned) [Example 27A, rel-3-chloro-4-{[4-(difluoromethyl)pyridin-2-yl]methoxy}-2′-[2-(2-hydroxypropan-2-yl)pyrimidin-4-yl]-5′,6-dimethyl-[1,4′-bipyridin]-2-one], the results for the IC50 on p38a/PRAK and on p38a/MK2 (setting [2]) were 126000 nM and 63.1 nM, respectively.
`Cc1ncc(-c2ccnc(C(C)(C)O)n2)cc1-n1c(C)cc(OCc2ncc(F)cc2F)c(Cl)c1=O` (single isomer, unassigned) [Example 45A, rel-3-chloro-4-[(3,5-difluoropyridin-2-yl)methoxy]-5′-[2-(2-hydroxypropan-2-yl)pyrimidin-4-yl]-2′,6-dimethyl-[1,3′-bipyridin]-2-one]: the IC50 at p38a/PRAK is over 316000 nM; on p38a/MK2 (setting [1]), over 1000 nM.
For the compound `Cc1cnc(-c2cccc([C@H](O)CO)n2)cc1-n1c(C)cc(OCc2ncc(F)cc2F)c(Cl)c1=O` (single isomer, unassigned) [Example 34C, rel-3-chloro-4-[(3,5-difluoropyridin-2-yl)methoxy]-2′-[6-(1,2-dihydroxyethyl)pyridin-2-yl]-5′,6-dimethyl-[1,4′-bipyridin]-2-one], the IC50 at p38a/PRAK is over 316000 nM; at p38a/MK2 (setting [2]), 2000 nM.
As for `Cc1sc(-c2ccnc(C(C)(C)O)n2)nc1-n1c(C)cc(OCc2ncc(F)cc2F)c(Cl)c1=O` [Example 17, 3-chloro-4-[(3,5-difluoropyridin-2-yl)methoxy]-1-{2-[2-(2-hydroxypropan-2-yl)pyrimidin-4-yl]-5-methyl-1,3-thiazol-4-yl}-6-methylpyridin-2-one], the IC50 is 39800 nM on p38a/PRAK and 2510 nM at p38a/MK2 (setting [2]).
In the same order, the values of `Cc1cnc(-c2ccc3c(n2)[C@H](O)CC3)cc1-n1c(C)cc(OCc2ncc(F)cc2F)c(Cl)c1=O` (single isomer, unassigned) [Example 18A] are 25100 nM and 158 nM.
Consider `Cc1cnc(-c2cccc([C@@H](O)CO)n2)cc1-n1c(C)cc(OCc2ncc(F)cc2F)c(Cl)c1=O` (single isomer, unassigned) [Example 34D, rel-3-chloro-4-[(3,5-difluoropyridin-2-yl)methoxy]-2′-[6-(1,2-dihydroxyethyl)pyridin-2-yl]-5′,6-dimethyl-[1,4′-bipyridin]-2-one], for which the IC50 was over 316000 nM on p38a/PRAK and 3160 nM at p38a/MK2 (setting [2]).
In the same order, the values of `Cc1cnc(-c2ccnc(C3CC(O)C3)n2)cc1-n1c(C)cc(OCc2ncc(F)cc2F)c(Cl)c1=O` (single isomer, unassigned) [Example 26B, rel-3-chloro-4-((3,5-difluoropyridin-2-yl)methoxy)-2′-(2-(3-hydroxycyclobutyl)pyrimidin-4-yl)-5′,6-dimethyl-2H-[1,4′-bipyridin]-2-one] are over 316000 nM and 1580 nM.
Consider `CCc1cnc(-c2ccnc(C(C)(C)O)n2)cc1-n1c(C)cc(OCc2ncc(F)cc2F)c(Cl)c1=O` (single isomer, unassigned) [Example 29B, rel-3-chloro-4-((3,5-difluoropyridin-2-yl)methoxy)-5′-ethyl-2′-(2-(2-hydroxypropan-2-yl)pyrimidin-4-yl)-6-methyl-2H-[1,4′-bipyridin]-2-one], for which the IC50 at p38a/PRAK was over 316000 nM; on p38a/MK2 (setting [2]) it was over 10000 nM.
Consider `Cc1cnc(-c2ccnc(N(C)CCO)n2)cc1-n1c(C)cc(OCc2ncc(F)cc2F)c(Cl)c1=O` (single isomer, unassigned) [Example 43B, rel-3-chloro-4-[(3,5-difluoropyridin-2-yl)methoxy]-2′-{2-[(2-hydroxyethyl)(methyl)amino]pyrimidin-4-yl}-5′,6-dimethyl-[1,4′-bipyridin]-2-one], for which the IC50 on p38a/PRAK was over 316000 nM; on p38a/MK2 (setting [1]), over 1000 nM.
With `[2H]C([2H])(Oc1cc(C)n(-c2c(C)cnc(-n3ccc(C(C)(C)O)n3)c2F)c(=O)c1Cl)c1ncc(F)cc1F` [Example 58A, rel-3-chloro-4-[(3,5-difluoropyridin-2-yl)(2H2)methoxy]-3′-fluoro-2′-[3-(2-hydroxypropan-2-yl)pyrazol-1-yl]-5′,6-dimethyl-[1,4′-bipyridin]-2-one], the IC50 was 1000 nM on p38a/PRAK and 1.26 nM on p38a/MK2 (setting [1]).
The corresponding values for `Cc1cnc(-n2ccc(C(C)(C)O)n2)c(F)c1-n1c(C)cc(OCc2ncc(F)cc2F)c(Cl)c1=O` (single isomer, unassigned) [Example 54B, rel-3-chloro-4-((3,5-difluoropyridin-2-yl)methoxy)-3′-fluoro-2′-(3-(2-hydroxypropan-2-yl)-1H-pyrazol-1-yl)-5′,6-dimethyl-2H-[1,4′-bipyridin]-2-one] are 1580 nM and 0.631 nM.
